From article PMC6566410, “Novel Diamide-Based Benzenesulfonamides as Selective Carbonic Anhydrase IX Inhibitors Endowed with Antitumor Activity: Synthesis, Biological Evaluation and In Silico Insights” (International Journal of Molecular Sciences, 2019)

Key:
UO-31 = assay: NCI one-dose SRB assay; type: cell-based; details: Homo sapiens
Summary of the method: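 A single 10^−5 M dose was screened across the NCI sixty-cell-line panel under the US-NCI Drug Evaluation Branch protocol. Growth and viability were read by sulforhodamine B colorimetric staining. Values are percentage growth of treated tumour cells.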

SW-620 = assay: NCI one-dose SRB assay; type: cell-based; details: Homo sapiens, SW-620 (Colon Cancer), 1.00E-5 Molar, read-out: Growth Percent
Summary of the method: (§1)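 Single-dose screen, 10^−5 M, NCI-60 panel per DTP protocol; growth/viability by SRB colorimetry.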

SK-MEL-28 = assay: NCI one-dose SRB assay; type: cell-based; details: Homo sapiens, SK-MEL-28 (Melanoma), 1.00E-5 Molar, read-out: Growth Percent
Summary of the method: as §1

A549/ATCC = assay: NCI one-dose SRB assay; type: cell-based; details: Homo sapiens, A549/ATCC (Non-Small Cell Lung Cancer), 1.00E-5 Molar, read-out: Growth Percent
Summary of the method: as §1

HCC-2998 = assay: NCI one-dose SRB assay; type: cell-based; details: Homo sapiens, HCC-2998 (Colon Cancer), 1.00E-5 Molar, read-out: Growth Percent
Summary of the method: as §1

MOLT-4 = assay: NCI one-dose SRB assay; type: cell-based; details: Homo sapiens, MOLT-4 (Leukemia), 1.00E-5 Molar, read-out: Growth Percent
Summary of the method: as §1

HT29 = assay: NCI one-dose SRB assay; type: cell-based; details: Homo sapiens, HT-29, HT29 (Colon Cancer), 1.00E-5 Molar, read-out: Growth Percent
Summary of the method: as §1

NCI-H460 = assay: NCI one-dose SRB assay; type: cell-based; details: Homo sapiens, NCI-H460 (Non-Small Cell Lung Cancer), 1.00E-5 Molar, read-out: Growth Percent
Summary of the method: as §1

TK-10 = assay: NCI one-dose SRB assay; type: cell-based; details: Homo sapiens, TK-10 (Renal Cancer), 1.00E-5 Molar, read-out: Growth Percent
Summary of the method: as §1

HS 578T = assay: NCI one-dose SRB assay; type: cell-based; details: Homo sapiens, HS 578T (Breast Cancer), 1.00E-5 Molar, read-out: Growth Percent
Summary of the method: as §1

UACC-62 = assay: NCI one-dose SRB assay; type: cell-based; details: Homo sapiens, UACC-62 (Melanoma), 1.00E-5 Molar, read-out: Growth Percent
Summary of the method: as §1

RPMI-8226 = assay: NCI one-dose SRB assay; type: cell-based; details: Homo sapiens, RPMI-8226 (Leukemia), 1.00E-5 Molar, read-out: Growth Percent
Summary of the method: as §1

SNB-19 = assay: NCI one-dose SRB assay; type: cell-based; details: Homo sapiens, SNB-19 (CNS Cancer), 1.00E-5 Molar, read-out: Growth Percent
Summary of the method: as §1

PC-3 = assay: NCI one-dose SRB assay; type: cell-based; details: Homo sapiens, PC-3 (Prostate Cancer), 1.00E-5 Molar, read-out: Growth Percent
Summary of the method: as §1

SK-MEL-2 = assay: NCI one-dose SRB assay; type: cell-based; details: Homo sapiens, SK-MEL-2 (Melanoma), 1.00E-5 Molar, read-out: Growth Percent
Summary of the method: as §1

CCRF-CEM = assay: NCI one-dose SRB assay; type: cell-based; details: Homo sapiens, CCRF-CEM (Leukemia), 1.00E-5 Molar, read-out: Growth Percent
Summary of the method: as §1

MDA-MB-231/ATCC = assay: NCI one-dose SRB assay; type: cell-based; details: Homo sapiens, MDA-MB-231/ATCC (Breast Cancer), 1.00E-5 Molar, read-out: Growth Percent
Summary of the method: as §1

MALME-3M = assay: NCI one-dose SRB assay; type: cell-based; details: Homo sapiens, MALME-3M (Melanoma), 1.00E-5 Molar, read-out: Growth Percent
Summary of the method: as §1

T-47D = assay: NCI one-dose SRB assay; type: cell-based; details: Homo sapiens, T47D, T-47D (Breast Cancer), 1.00E-5 Molar, read-out: Growth Percent
Summary of the method: as §1

LOX IMVI = assay: NCI one-dose SRB assay; type: cell-based; details: Homo sapiens, LOX IMVI (Melanoma), 1.00E-5 Molar, read-out: Growth Percent
Summary of the method: as §1

OVCAR-3 = assay: NCI one-dose SRB assay; type: cell-based; details: Homo sapiens, OVCAR-3 (Ovarian Cancer), 1.00E-5 Molar, read-out: Growth Percent
Summary of the method: as §1

SF-295 = assay: NCI one-dose SRB assay; type: cell-based; details: Homo sapiens, SF-295 (CNS Cancer), 1.00E-5 Molar, read-out: Growth Percent
Summary of the method: as §1

KM12 = assay: NCI one-dose SRB assay; type: cell-based; details: Homo sapiens, KM12 (Colon Cancer), 1.00E-5 Molar, read-out: Growth Percent
Summary of the method: as §1

HCT-116 = assay: NCI one-dose SRB assay; type: cell-based; details: Homo sapiens, HCT-116 (Colon Cancer), 1.00E-5 Molar, read-out: Growth Percent
Summary of the method: as §1

M14 = assay: NCI one-dose SRB assay; type: cell-based; details: Homo sapiens, M14 (Melanoma), 1.00E-5 Molar, read-out: Growth Percent
Summary of the method: as §1

U251 = assay: NCI one-dose SRB assay; type: cell-based; details: Homo sapiens, U-251, U251 (CNS Cancer), 1.00E-5 Molar, read-out: Growth Percent
Summary of the method: as §1

ACHN = assay: NCI one-dose SRB assay; type: cell-based; details: Homo sapiens, ACHN (Renal Cancer), 1.00E-5 Molar, read-out: Growth Percent
Summary of the method: as §1

MDA-MB-468 = assay: NCI one-dose SRB assay; type: cell-based; details: Homo sapiens, MDA-MB-468 (Breast Cancer), 1.00E-5 Molar, read-out: Growth Percent
Summary of the method: as §1

hCA I = hCA I (Homo sapiens, UniProt P00915); assay: stopped-flow CO2 hydrase assay
Excerpt: (§2) An Applied Photophysics stopped-flow instrument was used for assaying the CA catalysed CO2 hydration activity, as reported earlier [17]. The inhibition constants were obtained by non-linear least-squares methods using PRISM 3 and the Cheng-Prusoff equation as reported earlier, and represent the mean from at least three different determinations. The four tested CA isofoms were recombinant ones obtained in-house as reported earlier [26, 27, 28, 29].

hCA II = hCA II (Homo sapiens, UniProt P00918); assay: stopped-flow CO2 hydrase assay
Excerpt: as §2

Sequence of hCA I (P00915 whole entry): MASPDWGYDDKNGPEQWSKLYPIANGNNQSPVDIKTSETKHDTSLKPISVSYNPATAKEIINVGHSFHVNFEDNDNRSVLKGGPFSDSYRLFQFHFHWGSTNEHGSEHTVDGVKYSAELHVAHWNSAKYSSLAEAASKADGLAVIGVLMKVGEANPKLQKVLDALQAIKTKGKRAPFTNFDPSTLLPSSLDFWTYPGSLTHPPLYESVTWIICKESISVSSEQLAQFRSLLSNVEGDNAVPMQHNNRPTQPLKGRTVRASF

`Cc1ccc(C=C(NC(=O)c2ccccc2)C(=O)Nc2ccc(S(N)(=O)=O)cc2)o1` [Compound 5h, N-(1-(5-Methylfuran-2-yl)-3-oxo-3-((4-sulfamoylphenyl)amino)prop-1-en-2-yl)benzamide] gave an activity at 10 µM (UO-31; UO-31 (Renal Cancer), 1.00E-5 Molar, one dose, read-out: Growth Percent) of 65.2%, an inhibition at 10 µM (UO-31; UO-31, one dose 10^−5 M, read-out: percentage growth inhibition (GI%)) of 35% and an activity at 10 µM (SW-620) of 106%. The activity at 10 µM (SK-MEL-28) was 114%, the activity at 10 µM (A549/ATCC) was 90.6% and the activity at 10 µM (HCC-2998) was 104%. The activity at 10 µM (MOLT-4) was 88.9%, the activity at 10 µM (HT29) was 86.3% and the activity at 10 µM (NCI-H460) was 101%. It also gave an activity at 10 µM (TK-10) of 112%, an activity at 10 µM (HS 578T) of 76.5% and an activity at 10 µM (UACC-62) of 95%. It also gave an activity at 10 µM (RPMI-8226) of 84.7%, an activity at 10 µM (SNB-19) of 96.4% and an activity at 10 µM (PC-3) of 90.9%. For the same compound, the activity at 10 µM (SK-MEL-2) was 97.4%, the activity at 10 µM (CCRF-CEM) was 96.9% and the activity at 10 µM (MDA-MB-231/ATCC) was 97.4%. For the same compound, the activity at 10 µM (MALME-3M) was 93.2%, the activity at 10 µM (T-47D) was 85.8% and the activity at 10 µM (LOX IMVI) was 94.9%. The activity at 10 µM (OVCAR-3) was 108%, the activity at 10 µM (SF-295) was 94.2% and the activity at 10 µM (KM12) was 98.4%. The activity at 10 µM (HCT-116) was 89.1%, the activity at 10 µM (M14) was 114% and the activity at 10 µM (U251) was 88.9%. For the same compound, the activity at 10 µM (ACHN) was 90.9%, the activity at 10 µM (MDA-MB-468) was 98.7% and the Ki (hCA I) was 8.18 µM. The melting point was 240 to 243 °C and the Ki (hCA II) was 0.115 µM.
